Where “and” joins values, the source holds several entries; their conditions need not be identical. Identical values can stand only once.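 Cultured in 96-well plates, cells were exposed to test compound for 48 hours across five concentrations. Here, GI50 denotes the concentration required for 50% inhibition of growth. At the TGI there is no net growth.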 *1 amine or outer side, *2 acyl side, *3 side chain or, on linkers, in order; H or OH if unused. Where a SMILES comes first, the peptide text is derived from it. [ ]: non-standard residue; d: D form. The star is where a group is joined. X31 = CC(=O)N(C)SCC(N[*:1])C(=O)[*:2]; Fmoc = O=C(OCC1c2ccccc2-c2ccccc21)*; For = O=C*
What was measured:
Assay in all cases: NCI anticancer screen, dose series, 48 h
NCI/ADR-RES ovarian = tested on: NCI/ADR-RES ovarian
UACC-62 melanoma = tested on: UACC-62 melanoma
CCRF-CEM leukemia = tested on: CCRF-CEM leukemia
OVCAR-8 ovarian = tested on: OVCAR-8 ovarian
SR leukemia = tested on: SR leukemia
MOLT-4 leukemia = tested on: MOLT-4 leukemia
UACC-257 melanoma = tested on: UACC-257 melanoma
SNB-19 CNS = tested on: SNB-19 CNS
CAKI-1 renal = tested on: CAKI-1 renal
KM12 colon = tested on: KM12 colon
T-47D breast = tested on: T-47D breast
RPMI-8226 leukemia = tested on: RPMI-8226 leukemia

SMILES | TGI (NCI/ADR-RES ovarian) [µM] | TGI (UACC-62 melanoma) | TGI (CCRF-CEM leukemia) | TGI (OVCAR-8 ovarian) | TGI (SR leukemia) | TGI (MOLT-4 leukemia) [µM] | TGI (UACC-257 melanoma) | TGI (SNB-19 CNS) | TGI (CAKI-1 renal) | TGI (KM12 colon) | TGI (T-47D breast) | GI50 (OVCAR-8 ovarian) | GI50 (SR leukemia) | TGI (RPMI-8226 leukemia) | GI50 (SNB-19 CNS) | GI50 (CCRF-CEM leukemia) [µM] | GI50 (T-47D breast) [µM]
O=C(O)CCc1nc2cc3ccccc3cc2[nH]c1=O | > 100 | > 100 µM | > 100 µM | > 100 µM | > 100 µM | > 100 | > 100 µM | > 100 µM | > 100 µM | > 100 µM | > 100 µM | – | – | – | – | – | –
CC(Nc1n[nH]c(=O)c2c1nnn2Cc1ccccc1)c1ccccc1 (stereo not given) | > 100 | – | > 100 µM | > 100 µM | > 100 µM | > 100 | > 100 µM | > 100 µM and 66.2 µM | > 100 µM and 52.9 µM | > 100 µM | – | > 100 µM and 44.5 µM | > 100 µM and 48 µM | > 100 µM | > 100 µM and 21.7 µM | – | –
CC(=O)C1=NN(c2ccccc2)C2(S1)SC(c1ccccc1)(c1ccccc1)c1ccccc12 (stereo not given) | – | 48.7 µM | > 100 µM | > 100 µM | > 100 µM | > 100 | > 100 µM | > 100 µM | – | > 100 µM | – | – | – | > 100 µM | – | – | –
c1cc(C[S+]2CCCC2)oc1C[S+]1CCCC1 | > 100 | > 100 µM | > 100 µM | > 100 µM | – | > 100 | > 100 µM | > 100 µM | > 100 µM | – | > 100 µM | – | – | – | – | – | –
CC[C@H](C)[C@H]1NC(=O)[C@@H](NC(=O)[C@@H](CC(C)C)N(C)C(=O)C2CCCN2C(=O)[C@H](C)O)[C@@H](C)OC(=O)[C@H](Cc2ccccc2)N(C)C(=O)[C@@H]2CCCN2C(=O)[C@H](CC(C)C)NC(=O)[C@@H](C)C(=O)[C@H](C(C)C)OC(=O)C[C@@H]1O (stereo not given in full) | 1.6 | < 0.00625 µM | > 62.5 µM | 0.0461 µM | – | > 62.5 | < 0.00625 µM | < 0.00625 µM | – | < 0.00625 µM | – | – | – | – | – | – | –
COc1nc(OC)nc(Sc2ccc(Sc3ccc(Sc4nc(OC)nc(OC)n4)cc3)cc2)n1 | – | > 100 µM | > 100 µM | > 100 µM | > 100 µM | > 100 | > 100 µM | > 100 µM | > 100 µM | > 100 µM | – | – | – | > 100 µM | – | – | –
COC(=O)CCC1(O)C=CC(=O)C=C1 | > 100 | 58 µM | > 100 µM | > 100 µM | > 100 µM | > 100 | 66.3 µM | > 100 µM | 33.1 µM | > 100 µM | – | – | – | > 100 µM | – | – | –
O=C1c2ccccc2C(=O)c2c(O)c(NCCNCCO)cc(O)c21 | – | 23.8 µM | 13.2 µM | 12.6 µM | 9.04 µM | 10.4 | 19.6 µM | 11.8 µM | 14.2 µM | 15.7 µM | – | – | – | 21.4 µM | – | – | –
Cc1cc(Cl)ccc1NC(=O)C(=O)Cc1occc(=O)c1O | – | > 100 µM | > 100 µM | > 100 µM | > 100 µM | > 100 | > 100 µM | > 100 µM | > 100 µM | > 100 µM | – | – | – | > 100 µM | – | – | –
CC/C=C/C(/C=C/C[C@]1(CC)C[C@H](CC)[C@H](CC(=O)O)OO1)CC (stereo not given in full) | 4.79 | 12.1 µM | 1.95 µM | 13.1 µM | – | – | 28.9 µM | 12 µM | 4.82 µM | 3.68 µM | > 23.1 µM | – | – | 4.43 µM | – | – | –
NCCCCCNOCCCN | > 100 | > 100 µM | > 100 µM | > 100 µM | > 100 µM | > 100 | > 100 µM | > 100 µM | – | > 100 µM | > 100 µM | – | – | > 100 µM | – | – | –
COc1nc(C)nc2c1ncn2Cc1ccccc1 | > 100 | > 100 µM | > 100 µM | > 100 µM | > 100 µM | – | > 100 µM | > 100 µM | > 100 µM | > 100 µM | > 100 µM | – | – | > 100 µM | – | – | –
CC1(C)N=C(Oc2ccccc2)n2nccc2N1 | – | > 100 µM | > 100 µM | – | > 100 µM | > 100 | > 100 µM | > 100 µM | > 100 µM | > 100 µM | – | – | – | > 100 µM | – | – | –
COc1cc2c(cc1OCCCCN1CCN(CCCCOc3cc4c(cc3OC)C(=O)N3CCC[C@H]3C=N4)CC1)N=C[C@@H]1CCCN1C2=O | 16.5 | 0.0347 µM | 41.6 µM | 18.6 µM | > 100 µM | – | 0.676 µM | – | 0.182 µM | 0.204 µM | 3.53 µM | – | – | < 0.0241 µM | – | < 0.01 | –
C(=N/NC1=NCCN1)/c1c2ccccc2c(/C=N\NC2=NCCN2)c2ccccc12 | – | 0.274 µM and 0.425 µM and 0.242 µM | 1.92 µM and 1.13 µM and 1.33 µM | 1.32 µM and 2.98 µM and 3.42 µM | 0.759 µM and 4.29 µM | – | 0.393 µM and 0.902 µM and 0.801 µM | 0.458 µM and 0.922 µM and 2.15 µM | 2.78 µM and 5.02 µM and 6.65 µM | 0.816 µM and 0.96 µM and 2 µM | 0.939 µM and 4.13 µM | – | 0.116 µM | 0.798 µM and 2.11 µM and 1.26 µM | – | – | 0.174
Cc1nc2nn(C)cc2c(=O)n1/N=C/c1ccccc1 | – | > 100 µM | > 100 µM | > 100 µM | > 100 µM | > 100 | > 100 µM | > 100 µM | – | > 100 µM | – | – | – | > 100 µM | – | – | –
CCCOP(=S)(N1CC1)N1CC1 | – | > 100 µM | > 100 µM | > 100 µM | > 100 µM | > 100 | 46.5 µM | > 100 µM | > 100 µM | > 100 µM | – | – | – | > 100 µM | – | – | –
Cn1c(=O)sc2cc(C(=S)N3CCN(c4ccccc4)CC3)ccc21 | > 100 | > 100 µM | > 100 µM | > 100 µM | > 100 µM | > 100 | > 100 µM | > 100 µM | > 100 µM | > 100 µM | – | – | – | > 100 µM | – | – | –
CC(=O)N(C)SCC(NC(=O)C(Cc1ccccc1)NC(=O)OCC1c2ccccc2-c2ccccc21)C(=O)NC(Cc1ccccc1)C(=O)NC(Cc1cn(C=O)c2ccccc12)C(=O)NC(CCCCNC(=O)OCC1c2ccccc2-c2ccccc21)C(=O)NC(C(=O)NC(CSN(C)C(C)=O)C(=O)NC(C(N)=O)C(C)O)C(C)O (stereo not given) (Fmoc-F[X31]FW(For)K(Fmoc)T[X31]T-NH2; configuration not given here) | > 100 | > 100 µM | > 100 µM | > 100 µM | > 100 µM | > 100 | > 100 µM | > 100 µM | – | 64.5 µM | > 100 µM | – | – | > 100 µM | – | – | –
Cc1cc(C)nc(NS(=O)(=O)c2ccc(NC(=O)c3cccc4c(N)c5ccccc5nc34)cc2)n1 | – | > 100 µM | > 100 µM | > 100 µM | – | > 100 | > 100 µM | > 100 µM | > 100 µM | > 100 µM | – | – | – | > 100 µM | – | – | –

From PubChem BioAssay (NCI)
